Data: US20140045809A1, “CORROLES FOR NEUROPROTECTION AND NEURORESCUE” (priority 2008, published 2014)
Like-named read-outs stand apart in the source and are kept apart here.

Assays:
RIN-m cells [1] = assay: Protection of RIN-m beta cells against H2O2 toxicity (MTT); assay type: cell-based, rat; settings: 20 μM, 30 min before 35 μM H2O2, 24 h
Method: Two insulin-secreting beta cell lines, rat insulinoma (INS-1E) and RIN-m cells, were used to examine the protective effect of corrole 1C-Fe. The cells were cultured at 37° C., in a humid 5% CO2, 95% air environment in regular RPMI-1640 medium (Invitrogen) supplemented with 5% fetal calf serum (FCS).
After 2 days of culture, RIN-m cells (5×10^4 cells/well in 96-well plates) were treated with corrole 1C-Fe (1-50 μM) before addition of 35 μM of H2O2. Cell viability was evaluated by a colorimetric assay for mitochondrial function estimation using the MTT test as previously described (Gassen et al., 1998) and expressed as percentage of control.
RIN-m cells were grown as described in Example 5. After 3 days of culture, RIN-m cells (2.5×10^4 cells/well in 96-well plates) were treated with corroles 1C-Fe or 5C-Fe or porphyrin 1P-Fe (1 and 20 μM), added 30 min prior to treatment with 35 μM H2O2 and further incubated for 24 h. Cell injury was evaluated by MTT test. […] […].
Protective effect of iron(III) corrole complexes against H2O2-induced toxicity (150 μM) was compared to that of manganese(III) corroles and related porphyrin. […].

INS-1E cells = assay: Protection of INS-1E cells against SIN-1 toxicity (MTT); assay type: cell-based, rat; settings: 10 μM, 30 min before SIN-1 (500 or 600 μM), 24 h
Method: (§1) INS-1E cells or RIN-m cells were cultured in RPMI with low serum content (2% FCS), placed in microtiter plates (96 wells) at a density of 2.5×10^4 cells/well and allowed to attach for 24 h before treatment. Corroles 1C-Fe and 5C-Fe (10 μM) were added 30 min prior to insult with the nitric oxide donor SIN-1 (500 or 600 μM) for a subsequent 24 h period. Cell viability was evaluated by a colorimetric assay for mitochondrial function using 3-(4,5-dimethylthiazol-2-yl)-2,5-diphenyltetrazolium bromide (MTT test), and expressed as percentage of untreated control. Values higher than 100% reflect increased mitochondrial activity induced by the drug. The results represent the mean±SEM of three independent experiments performed under the same conditions.

RIN-m cells [2] = assay: Protection of RIN-m cells against SIN-1 toxicity (MTT); assay type: cell-based, rat; settings: 10 μM, 30 min before SIN-1 (500 or 600 μM), 24 h
Method: as §1
Insulin-secreting RIN-m cells were incubated in RPMI with low serum content (2% FCS) and placed in microtiter plates (96 wells) at a density of 2.5×10^4 cells/well and allowed to attach for 24 h before treatment. Cells were treated with corroles 1C-Fe, 1C-Mn or 2C-Mn or porphyrins 1P-Fe or 2P-Mn, in various concentrations (0.1-20 μM), for 30 min prior to insult with SIN-1 (800 μM) for a subsequent 24 h period. Cell viability was evaluated by MTT test and expressed as percentage of untreated control.

SH-SY5Y cells [3] = assay type: cell-based
Method: Human neuroblastoma cell line was also examined under conditions similar to RIN-m cells to reveal the corrole's ability to prevent neuronal death caused by oxidative stress. SH-SY5Y cells were plated in microtiter plates (96 wells) in DMEM-Eagle/F-12(HAM) (1:1), containing 10% FCS. To examine neuroprotective effect, SH-SY5Y cells were treated for 30 min with corroles 1C-Fe and 5C-Fe (20 and 50 μM) before addition of 20 μM H2O2 for 24 h. To examine neurorescue, SH-SY5Y cells were first exposed to 20 μM H2O2 for 0.5 h, 1.5 h or 3 h, followed by the addition of corroles 1C-Fe and 5C-Fe (20 μM) and incubation for 24 h.
Compounds 1C-Fe and 1P-Fe (1-50 μM) were added 30 min before insult with H2O2 (200 μM), followed by a subsequent 24 h period. The neuroprotective effects of the iron corrole 1C-Fe and its structurally analogous iron porphyrin 1P-Fe, against H2O2-induced neurotoxicity were investigated using MTT reduction assay and cell death ELISA, based on the use of mouse monoclonal antibodies to detect free histones and fragmented DNA (F. Hollderieder et al, Biochemica 2002, 1, 25). […] In light of the observed neuroprotective effect of corrole 1C-Fe, we attempted to determine the length of the delay between H2O2 exposure and corrole 1C-Fe treatment that would still afford neuroprotection. H2O2 was administered to SH-SY5Y cells and corrole 1C-Fe was then added for 0.5-1.5 h thereafter. […]

SH-SY5Y cells [4] = assay: Neuroprotection/neurorescue against SIN-1-induced cell death in SH-SY5Y cells; assay type: cell-based, human; settings: 24 h (Example 11)
Method: SH-SY5Y cells were cultured in DMEM-Eagle/F-12(HAM) (1:1) containing 10% FCS. Cells were resuspended in medium containing 2% FCS, seeded in microtiter plates (96 wells) and allowed to attach for 24 h before initiation of treatment. […]

SH-SY5Y cells [5] = assay type: cell-based; settings: 24 h
Method: SH-SY5Y cells were cultured in DMEM-Eagle/F-12(HAM) (1:1) containing 10% FCS. Cells were resuspended in medium containing 2% FCS, seeded in microtiter plates (96 wells) and allowed to attach for 24 h. To examine the neuroprotective effect, cells were pretreated for 30 min with corroles 1C-Fe and 5C-Fe (1-20 μM), and were then exposed to 6-OHDA (60 μM) for further 24 h. For neurorescue assessment, SH-SY5Y cells were first treated with 6-OHDA (60 μM) for 0.5 h, 1.5 h, 3 h and 6 h followed by the addition of compounds 1C-Fe and 5C-Fe (10 μM) for further 24 h.
SH-SY5Y cells were pretreated with or without corroles 1C-Fe, 2C-Mn and 3C-Mn and porphyrins 1P-Fe and 2P-Mn (20 μM), 30 min before exposure to 6-OHDA (40 μM) for a subsequent 24 h period. Cell viability was evaluated by MTT test and cell death was assessed using the apoptotic cell death detection ELISA kit. For neurorescue, SH-SY5Y cells were first exposed to 40 μM 6-OHDA for 0.5. 1, 1.5 and 3 h, followed by the addition of the compounds 1C-Fe, 2C-Mn and 3C-Mn (20 μM) and incubated for further 24 h. Growth-associated protein (GAP-43) was detected by fluorescence microscopy using a specific primary antibody. Apoptotic nuclei were determined by terminal deoxynucleotidyl transferase-mediated UTP-digoxigenin nick end labeling analysis. 4′,6-Diamidino-2-phenylnidole (DAPI) staining was applied for nuclear labeling. […]

NSC-34 G93A cells = assay: Cell culture model of familial ALS, NSC-34 cells expressing mutant G93A-SOD1; assay type: cell-based, mouse; settings: 48 h induction; even at a concentration as low as 0.5 μM
Method: Mutant-superoxide dismutase (G93A-SOD1) is associated with familial amyotrophic lateral sclerosis (FALS). A cell culture model of FALS was implemented by stably transfecting mouse motoneuronal NSC-34 cells or SH-SY5Y cells, to express mutant G93A-SOD1 at levels approximating those seen in the human disease. NSC-34 cells or SH-SY5Y cells were incubated in Dulbecco's modified Eagle's/F-12 medium supplemented with 10% FCS tetracycline-free (FCS Tet-free; Clontech), at 37° C. in an atmosphere of 5% CO2 in air. These cell lines are stably transfected with the pTet-ON plasmid (Clontech, Palo Alto, Calif.) coding for the reverse tetracycline controlled transactivator (rtTA). Induction of mutant SOD1 expression was obtained by shifting nonconfluent cultures into growth medium containing 1% N2 supplement (Invitrogen, Carlsbad, Calif.) and […] doxocyclin for 48 h in the presence or absence of corrole 1C-Fe and 5C-Fe.

[6] = tested on: nigral dopaminergic neurons; settings: MPTP model, also given post-MPTP; Gal et al., 2005; cited from earlier work
MAO-A = molecular target: T1, MAO-A (Mus musculus, UniProt Q64133); settings: Gal et al., 2005, cited from earlier work
T1 construct: host or cells: brain and peripheral organs of treated animals
T1 sequence (Q64133 1-526): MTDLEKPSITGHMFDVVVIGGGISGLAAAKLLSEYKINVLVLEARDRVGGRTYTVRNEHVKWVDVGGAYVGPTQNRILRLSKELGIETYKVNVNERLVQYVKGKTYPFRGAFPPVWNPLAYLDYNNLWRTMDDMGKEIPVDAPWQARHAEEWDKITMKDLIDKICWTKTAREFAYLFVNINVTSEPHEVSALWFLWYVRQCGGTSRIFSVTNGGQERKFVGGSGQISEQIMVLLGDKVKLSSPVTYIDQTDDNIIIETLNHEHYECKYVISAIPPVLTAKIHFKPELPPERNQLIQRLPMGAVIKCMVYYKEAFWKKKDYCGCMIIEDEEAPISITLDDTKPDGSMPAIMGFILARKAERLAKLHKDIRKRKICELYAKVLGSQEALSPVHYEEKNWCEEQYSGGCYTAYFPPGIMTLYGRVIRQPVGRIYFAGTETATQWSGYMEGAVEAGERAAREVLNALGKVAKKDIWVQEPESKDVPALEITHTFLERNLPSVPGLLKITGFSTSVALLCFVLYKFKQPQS

MAO-B = molecular target: T2, MAO-B (Mus musculus, UniProt Q8BW75); settings: Gal et al., 2005, cited from earlier work
T2 construct: host or cells: brain and peripheral organs of treated animals
T2 sequence (Q8BW75 1-520): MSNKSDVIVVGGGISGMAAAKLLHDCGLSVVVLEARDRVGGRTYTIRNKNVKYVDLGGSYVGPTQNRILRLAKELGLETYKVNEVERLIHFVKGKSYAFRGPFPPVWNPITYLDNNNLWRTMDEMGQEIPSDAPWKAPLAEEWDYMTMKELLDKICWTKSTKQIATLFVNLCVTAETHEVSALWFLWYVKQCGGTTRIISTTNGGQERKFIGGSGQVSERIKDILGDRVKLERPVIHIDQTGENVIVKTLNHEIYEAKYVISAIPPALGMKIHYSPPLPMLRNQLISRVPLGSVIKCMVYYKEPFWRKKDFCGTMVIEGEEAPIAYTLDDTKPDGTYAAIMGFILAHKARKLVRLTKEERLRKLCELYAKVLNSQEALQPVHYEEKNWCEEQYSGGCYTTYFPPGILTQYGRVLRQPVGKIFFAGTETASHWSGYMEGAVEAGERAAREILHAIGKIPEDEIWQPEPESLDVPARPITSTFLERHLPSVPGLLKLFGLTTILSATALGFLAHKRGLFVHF

Row | Compound | protective effect against H2O2 toxicity relative to porphyrin 1P-Fe (MTT) (RIN-m cells [1]) | protective effect against SIN-1 induced toxicity (MTT) (INS-1E cells) | protective effect against SIN-1 induced toxicity (MTT) (RIN-m cells [2]) | neurorescue after H2O2 insult (SH-SY5Y cells [3]; 20 μM H2O2 for 0.5, 1.5 or 3 h, then 20 μM corrole, 24 h) | neuroprotective effect against H2O2-induced toxicity (SH-SY5Y cells [3]; 20 and 50 μM, 30 min before 20 μM H2O2, 24 h) | neurorescue after SIN-1 insult (SH-SY5Y cells [4]; 20 μM added 0.5, 1.5 or 3 h after insult) | neuroprotective effect against SIN-1 induced toxicity (SH-SY5Y cells [4]; 10 and 20 μM, 30 min pretreatment) | neuroprotective effect against 6-OHDA-induced toxicity (SH-SY5Y cells [5]; 1-20 μM, 30 min before 6-OHDA (60 μM)) | neurorescue after 6-OHDA insult (SH-SY5Y cells [5]; 6-OHDA (60 μM) for 0.5, 1.5, 3 and 6 h, then 10 μM) | cell viability of induced mutant cells (NSC-34 G93A cells) | neuroprotection and restoration of nigral dopaminergic neurons [6] | MAO-A inhibition (MAO-A; in peripheral organs) | MAO-A inhibition (MAO-A; in the brain) | MAO-B inhibition (MAO-B; in peripheral organs) | MAO-B inhibition (MAO-B; in the brain)
1 | O=C(O)CNS(=O)(=O)c1cc2[n]3c1C(c1c(F)c(F)c(F)c(F)c1F)=C1C=CC4=[N+]1[Fe-]31[n]3c(cc(S(=O)(=O)NCC(=O)O)c3-2)C(c2c(F)c(F)c(F)c(F)c2F)=c2ccc([n]21)=C4c1c(F)c(F)c(F)c(F)c1F (stereo not shown) [5C-Fe, 2,17-bis(N-sulfonylglycine)-5,10,15-tris(pentafluoro-phenyl)-corrolato iron(III)] | exhibit a greater protective effect | marked protective effect | marked protective effect | instigated neurorescue | dose-dependent neuroprotective effect | instigated neurorescue | dose-dependent neuroprotective effect | dose-dependent neuroprotective effect | instigated neurorescue | significantly improved cell viability |  |  |  |  | 
2 | C#CCN(C)Cc1ccc(O)c2ncccc12 [M-30] |  |  |  |  |  |  |  |  |  |  | neuroprotective and also have the ability to restore nigral dopaminergic neurons when given post-MPTP | poorly | potently inhibits | poorly | potently inhibits
3 | C#CCN[C@@H]1CCc2ccccc21 [rasagiline] |  |  |  |  |  |  |  |  |  |  | neuroprotective and also have the ability to restore nigral dopaminergic neurons when given post-MPTP |  |  |  | 
